# Reference: ChEMBL document CHEMBL1201862, “PubChem BioAssay data set” (2004)
#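 Cultured in 96-well plates, cells were exposed to test compound for 48 hours across five concentrations. At the GI50, growth is halved.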 Calls of active or inactive are those of the source. Cut-off read from the data, not from the text of the source: active = GI50 up to about 1.1 µM and inactive = higher.
# Columns and labels:
# Assay in all cases: inhibition of tumour cell growth, NCI panel, 48 h
# DU-145 = tested on: DU-145
# K562 = tested on: K562
# OVCAR-5 = tested on: OVCAR-5
# NCI-H226 = tested on: NCI-H226
# LOX IMVI = tested on: LOX IMVI
# SK-MEL-28 = tested on: SK-MEL-28
# KM12 = tested on: KM12
# SF-539 = tested on: SF-539
# NCI-H23 = tested on: NCI-H23
# SNB-19 = tested on: SNB-19
# HOP-62 = tested on: HOP-62
# CAKI-1 = tested on: CAKI-1
# PC-3 = tested on: PC-3
# MCF7 = tested on: MCF7
# SR = tested on: SR
# HL-60 = tested on: HL-60
# CCRF-CEM = tested on: CCRF-CEM
# OVCAR-4 = tested on: OVCAR-4
# NCI/ADR-RES = tested on: NCI/ADR-RES
Structure (SMILES),GI50 (DU-145),GI50 (K562),GI50 (OVCAR-5),GI50 (NCI-H226),GI50 (LOX IMVI),GI50 (SK-MEL-28),GI50 (KM12),GI50 (SF-539),GI50 (NCI-H23),GI50 (SNB-19),GI50 (HOP-62),GI50 (CAKI-1),GI50 (PC-3),GI50 (MCF7),GI50 (SR),GI50 (HL-60),GI50 (CCRF-CEM),GI50 (OVCAR-4),GI50 (NCI/ADR-RES)
Cc1ccc2c(c1)C(=O)c1ccc(C)nc1C2=O,49.4 µM (inactive),48.4 µM (inactive),> 100 µM (inactive),> 100 µM (inactive),21.9 µM (inactive),46.8 µM (inactive),27.9 µM (inactive),23 µM (inactive),18.9 µM (inactive),22.2 µM (inactive),37.8 µM (inactive),41.7 µM (inactive),31.8 µM (inactive),27.4 µM (inactive),34.1 µM (inactive),26.7 µM (inactive),58.7 µM (inactive),27.7 µM (inactive),24 µM (inactive)
COc1c(C(=O)O)cccc1-c1cccc(C(=O)NCCN(CCNC(=O)c2cccc(-c3cccc(C(=O)O)c3OC)c2OC)CCNC(=O)c2cccc(-c3cccc(C(=O)O)c3OC)c2OC)c1OC,39 µM (inactive),24.3 µM (inactive),28.6 µM (inactive),32.7 µM (inactive),32.3 µM (inactive),52.5 µM (inactive),18.6 µM (inactive),37.2 µM (inactive),64.7 µM (inactive),52 µM (inactive),58.9 µM (inactive),51.6 µM (inactive),27.9 µM (inactive),37.8 µM (inactive),10.7 µM (inactive),18.2 µM (inactive),35.2 µM (inactive),60.5 µM (inactive),> 100 µM (inactive)
Cc1c2oc3c(C)cc(F)c(C(=O)NC4C(=O)NC(C(C)C)C(=O)N5CCCC5C(=O)N(C)CC(=O)N(C)C(C(C)C)C(=O)OC4C)c3nc-2c(C(=O)NC2C(=O)NC(C(C)C)C(=O)N3CCCC3C(=O)N(C)CC(=O)N(C)C(C(C)C)C(=O)OC2C)c(N)c1=O (configuration not stated),0.115 µM (active),< 0.001 µM (active),0.214 µM (active),0.0234 µM (active),0.00255 µM (active),0.0263 µM (active),0.00475 µM (active),0.0681 µM (active),0.105 µM (active),0.00771 µM (active),0.107 µM (active),2.45 µM (inactive),0.0179 µM (active),< 0.001 µM (active),< 0.001 µM (active),0.00131 µM (active),< 0.001 µM (active),0.711 µM (active),4.65 µM (inactive)
Cc1ccnc2c1c(=O)c1ccccc1n2C,52.2 µM (inactive),50.7 µM (inactive),54.5 µM (inactive),44.7 µM (inactive),37.6 µM (inactive),43 µM (inactive),50.7 µM (inactive),29.9 µM (inactive),49.1 µM (inactive),15.4 µM (inactive),40.7 µM (inactive),22.1 µM (inactive),31.8 µM (inactive),32.9 µM (inactive),44.9 µM (inactive),34.2 µM (inactive),47.2 µM (inactive),35.6 µM (inactive),40.6 µM (inactive)
C[N+](C)(C)C(Cc1c[nH]c(=S)[nH]1)C(=O)O (configuration not stated),> 100 µM (inactive),> 100 µM (inactive),> 100 µM (inactive),> 100 µM (inactive),> 100 µM (inactive),> 100 µM (inactive),> 100 µM (inactive),> 100 µM (inactive),> 100 µM (inactive),> 100 µM (inactive),> 100 µM (inactive),> 100 µM (inactive),> 100 µM (inactive),> 100 µM (inactive),> 100 µM (inactive),> 100 µM (inactive),> 100 µM (inactive),> 100 µM (inactive),> 100 µM (inactive)
COC(=O)C1=C(N)C2=C(N)Oc3ccccc3C2CC1=C(C#N)C#N (configuration not stated),26.5 µM (inactive),19.6 µM (inactive),27.9 µM (inactive),44.3 µM (inactive),18.8 µM (inactive),–,15.7 µM (inactive),43.6 µM (inactive),19.6 µM (inactive),18.6 µM (inactive),33.5 µM (inactive),23.2 µM (inactive),28.1 µM (inactive),12.7 µM (inactive),12.6 µM (inactive),29.2 µM (inactive),24.2 µM (inactive),30.2 µM (inactive),20.2 µM (inactive)
O=C(O)c1ccccc1/C=C1/Cc2ccc3c(c2C1=O)CCC3,68.9 µM (inactive),33.3 µM (inactive),20.9 µM (inactive),36.2 µM (inactive),19.1 µM (inactive),42.8 µM (inactive),37.8 µM (inactive),23.9 µM (inactive),35.6 µM (inactive),54.7 µM (inactive),68.9 µM (inactive),> 100 µM (inactive),42.9 µM (inactive),49.5 µM (inactive),39.1 µM (inactive),20.1 µM (inactive),38.9 µM (inactive),29.8 µM (inactive),50.2 µM (inactive)
CCOC(=O)/C(C(=S)NCc1ccccc1)=C(/N)N1CCCC1,> 100 µM (inactive),> 100 µM (inactive),> 100 µM (inactive),> 100 µM (inactive),> 100 µM (inactive),> 100 µM (inactive),> 100 µM (inactive),> 100 µM (inactive),> 100 µM (inactive),> 100 µM (inactive),> 100 µM (inactive),> 100 µM (inactive),> 100 µM (inactive),> 100 µM (inactive),> 100 µM (inactive),> 100 µM (inactive),> 100 µM (inactive),> 100 µM (inactive),> 100 µM (inactive)
C=CCN1C(=O)/C(=C\c2cc(C(C)(C)C)c(O)c(C(C)(C)C)c2)NC1=S,21.2 µM (inactive),19.9 µM (inactive),31.3 µM (inactive),29.3 µM (inactive),16.4 µM (inactive),30.6 µM (inactive),19.4 µM (inactive),39.5 µM (inactive),21.2 µM (inactive),41.9 µM (inactive),20.9 µM (inactive),22.3 µM (inactive),14.2 µM (inactive),20.7 µM (inactive),21.1 µM (inactive),0.239 µM (active),0.879 µM (active),19.3 µM (inactive),23.9 µM (inactive)
O=c1[nH]c(=O)n(C/C=C/CO)nc1Br,> 100 µM (inactive),–,> 100 µM (inactive),> 100 µM (inactive),> 100 µM (inactive),> 100 µM (inactive),> 100 µM (inactive),> 100 µM (inactive),> 100 µM (inactive),> 100 µM (inactive),> 100 µM (inactive),> 100 µM (inactive),> 100 µM (inactive),> 100 µM (inactive),> 100 µM (inactive),> 100 µM (inactive),> 100 µM (inactive),> 100 µM (inactive),> 100 µM (inactive)
CC1(CCc2ccccc2)CC1(Br)Br (configuration not stated),57.9 µM (inactive),19.5 µM (inactive),32.6 µM (inactive),24 µM (inactive),20.5 µM (inactive),> 100 µM (inactive),35.7 µM (inactive),> 100 µM (inactive),43.9 µM (inactive),> 100 µM (inactive),51.9 µM (inactive),56.5 µM (inactive),40.8 µM (inactive),38.8 µM (inactive),19.8 µM (inactive),21.5 µM (inactive),23.6 µM (inactive),30.3 µM (inactive),88.9 µM (inactive)
Cc1cc(CN(Cc2ccccc2)Cc2nc3ccccc3[nH]2)c(O)c(CN(Cc2nc3ccccc3[nH]2)Cc2nc3ccccc3[nH]2)c1,23.4 µM (inactive),2.63 µM (inactive),15.2 µM (inactive),3.42 µM (inactive),3.48 µM (inactive),26.2 µM (inactive),6.3 µM (inactive),2.92 µM (inactive),6.93 µM (inactive),5.2 µM (inactive),5.26 µM (inactive),8.69 µM (inactive),12.4 µM (inactive),2.66 µM (inactive),2.6 µM (inactive),2.16 µM (inactive),2.81 µM (inactive),6.01 µM (inactive),5.06 µM (inactive)
CC(=O)O[C@@H](c1nccn1Cc1ccccc1)[C@H]1OC(C)(C)O[C@@H]1[C@H]1COC(C)(C)O1,> 100 µM (inactive),> 100 µM (inactive),> 100 µM (inactive),> 100 µM (inactive),> 100 µM (inactive),> 100 µM (inactive),> 100 µM (inactive),> 100 µM (inactive),> 100 µM (inactive),–,> 100 µM (inactive),> 100 µM (inactive),> 100 µM (inactive),> 100 µM (inactive),> 10 µM (inactive),> 100 µM (inactive),> 100 µM (inactive),> 100 µM (inactive),> 100 µM (inactive)
CC1CCCc2c(CC3CC(=O)NC(=O)C3)nc(N)nc21 (configuration not stated),> 100 µM (inactive),> 100 µM (inactive),> 100 µM (inactive),> 100 µM (inactive),> 100 µM (inactive),> 100 µM (inactive),> 100 µM (inactive),> 100 µM (inactive),> 100 µM (inactive),–,> 100 µM (inactive),> 100 µM (inactive),> 100 µM (inactive),> 100 µM (inactive),> 100 µM (inactive),2.21 µM (inactive),> 100 µM (inactive),> 100 µM (inactive),> 100 µM (inactive)
